The assay has as its system CCI rat. As to conditions: in vivo.

For `CN1CC[C@]23c4c5ccc(O)c4O[C@H]2[C@@H](O)C=C[C@H]3[C@H]1C5` [morphine], the “antinociceptive effects in a rat model of neuropathic pain” value was “produced antinociceptive effects”, the “duration of antinociceptive effects” value turned out to be 3 h and the “selectivity of antinociceptive effects between paws” value is listed as “selective for the ipsilateral over the contralateral paw”.

The record behind these values is patent US7851444B2 (priority 2002, dated 2010).
